From ChEMBL document CHEMBL4339234, “Synthesis and in vitro biological evaluation of new P2X7R radioligands [11C]halo-GSK1482160 analogs” (Bioorg Med Chem Lett, 2019) come the findings set out here.

For assay [1], the target named is T1, P2X purinoceptor 7 (Homo sapiens, UniProt Q99572).
T1 sequence (Q99572 whole entry): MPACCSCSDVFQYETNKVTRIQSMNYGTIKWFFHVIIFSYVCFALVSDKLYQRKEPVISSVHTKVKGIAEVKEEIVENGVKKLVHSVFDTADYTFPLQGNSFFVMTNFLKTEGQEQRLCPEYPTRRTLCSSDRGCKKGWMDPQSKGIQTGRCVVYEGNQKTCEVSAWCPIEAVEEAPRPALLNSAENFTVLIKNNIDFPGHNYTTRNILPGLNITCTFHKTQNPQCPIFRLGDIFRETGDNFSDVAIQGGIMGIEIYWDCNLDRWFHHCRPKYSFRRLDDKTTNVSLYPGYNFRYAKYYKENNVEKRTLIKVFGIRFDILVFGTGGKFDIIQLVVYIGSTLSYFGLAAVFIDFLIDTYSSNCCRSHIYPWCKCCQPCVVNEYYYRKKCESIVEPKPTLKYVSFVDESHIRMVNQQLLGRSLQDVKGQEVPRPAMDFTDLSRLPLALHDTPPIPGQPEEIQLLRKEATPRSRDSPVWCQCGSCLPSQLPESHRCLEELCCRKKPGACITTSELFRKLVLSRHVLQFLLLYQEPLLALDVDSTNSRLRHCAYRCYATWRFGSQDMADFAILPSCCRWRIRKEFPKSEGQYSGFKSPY
Put plainly: Competitive displacement of [11C]GSK1482160 from human recombinant P2X7 receptor expressed in HEK293 cell membranes incubated for 30 mins by scintillation counting method based radioligand competitive binding assay.

Assay [2] concerns the target T1, P2X purinoceptor 7. Put plainly: Displacement of [11C]GSK1482160 from human recombinant P2X7 receptor expressed in HEK293 cell membranes incubated for 30 mins by scintillation counting method based radioligand competitive binding assay. In general terms: In a radioligand displacement assay an active substance lowers the binding of a labelled ligand.

One may read the Ki as a dissociation constant, usually derived from enzyme kinetics or from competition with a known ligand. What is called IC50 is the concentration needed to halve the response being measured.

With `CN1C(=O)CC[C@H]1C(=O)NCc1cccc(C(F)(F)F)c1F`, the Ki at P2X purinoceptor 7 [1] is 54.2 nM. In addition, at P2X purinoceptor 7 [2], the IC50 was found to be 153 nM.
For `CN1C(=O)CC[C@H]1C(=O)NCc1cccc(C(F)(F)F)c1Br`, in that order: 2.5 nM and 7.1 nM.
For `CN1C(=O)CC[C@H]1C(=O)NCc1cccc(C(F)(F)F)c1I`, in that order: 1.9 nM and 5.3 nM.
Take `CN1C(=O)CC[C@H]1C(=O)NCc1cccc(C(F)(F)F)c1Cl` [GSK1482160]: the Ki at P2X purinoceptor 7 [1] was determined as 3.1 nM.
